Reference: PubChem BioAssay (NCI)
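Protocol summary: plate cells (96-well), add compound at 5 concentrations, incubate 48 h, interpolate endpoints linearly. Abbreviation: GI50, concentration required for 50% inhibition of growth. At the TGI there is no net growth.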

How the values were obtained:
Experiment in all cases: NCI tumour cell line growth inhibition, 48 h
786-0 renal = test system: 786-0 renal
A498 renal = test system: A498 renal
A549 NSCLC = test system: A549 NSCLC
ACHN renal = test system: ACHN renal
BT-549 breast = test system: BT-549 breast
CCRF-CEM leukemia = test system: CCRF-CEM leukemia
COLO 205 colon = test system: COLO 205 colon
DU-145 prostate = test system: DU-145 prostate
EKVX NSCLC = test system: EKVX NSCLC
HCC-2998 colon = test system: HCC-2998 colon
HCT-116 colon = test system: HCT-116 colon
HCT-15 colon = test system: HCT-15 colon
HL-60(TB) leukemia = test system: HL-60(TB) leukemia
HOP-62 NSCLC = test system: HOP-62 NSCLC
HOP-92 NSCLC = test system: HOP-92 NSCLC
HS 578T breast = test system: HS 578T breast
HT29 colon = test system: HT29 colon
IGROV1 ovarian = test system: IGROV1 ovarian
K-562 leukemia = test system: K-562 leukemia
KM12 colon = test system: KM12 colon
LOX IMVI melanoma = test system: LOX IMVI melanoma
M14 melanoma = test system: M14 melanoma
MALME-3M melanoma = test system: MALME-3M melanoma
MCF7 breast = test system: MCF7 breast
MDA-MB-231 breast = test system: MDA-MB-231 breast
MDA-MB-435 = test system: MDA-MB-435
MOLT-4 leukemia = test system: MOLT-4 leukemia
NCI-H226 lung = test system: NCI-H226 lung
NCI-H23 lung = test system: NCI-H23 lung
NCI-H460 lung = test system: NCI-H460 lung
NCI-H522 lung = test system: NCI-H522 lung
NCI/ADR-RES ovarian = test system: NCI/ADR-RES ovarian
OVCAR-3 ovarian = test system: OVCAR-3 ovarian
OVCAR-4 ovarian = test system: OVCAR-4 ovarian
OVCAR-5 ovarian = test system: OVCAR-5 ovarian
OVCAR-8 ovarian = test system: OVCAR-8 ovarian
PC-3 prostate = test system: PC-3 prostate
RPMI-8226 leukemia = test system: RPMI-8226 leukemia
RXF 393 renal = test system: RXF 393 renal
SF-268 CNS = test system: SF-268 CNS
SF-295 CNS = test system: SF-295 CNS
SF-539 CNS = test system: SF-539 CNS
SK-MEL-2 melanoma = test system: SK-MEL-2 melanoma
SK-MEL-28 melanoma = test system: SK-MEL-28 melanoma
SK-MEL-5 melanoma = test system: SK-MEL-5 melanoma
SK-OV-3 ovarian = test system: SK-OV-3 ovarian
SN12C renal = test system: SN12C renal
SNB-19 CNS = test system: SNB-19 CNS
SNB-75 CNS = test system: SNB-75 CNS
SR leukemia = test system: SR leukemia
SW-620 colon = test system: SW-620 colon
T-47D breast = test system: T-47D breast
TK-10 renal = test system: TK-10 renal
U251 CNS = test system: U251 CNS
UACC-257 melanoma = test system: UACC-257 melanoma
UACC-62 melanoma = test system: UACC-62 melanoma
UO-31 renal = test system: UO-31 renal

**Q.** How did the GI50 (786-0 renal) turn out when `CC(=O)OC[C@]1(C)C=C2C(=O)[C@](C)(O)C3(CC3)C(C)=C2[C@H]1OC(=O)N(C)CCN(C)C(=O)OC(C)(C)C` was run?
**A.** 0.938 µM

**Q.** What about the TGI (786-0 renal) of the same molecule?
**A.** 2.8 µM

**Q.** And the GI50 (A498 renal)?
**A.** 1.3 µM

**Q.** What about the TGI (A498 renal) of the same molecule?
**A.** 4.83 µM

**Q.** And the GI50 (A549 NSCLC)?
**A.** 1.36 µM

**Q.** And the TGI (A549 NSCLC)?
**A.** 31.1 µM

**Q.** And the GI50 (ACHN renal)?
**A.** 0.947 µM

**Q.** And the TGI (ACHN renal)?
**A.** 4.2 µM

**Q.** What about the GI50 (BT-549 breast) of the same molecule?
**A.** 0.898 µM

**Q.** What about the TGI (BT-549 breast) of the same molecule?
**A.** 3.13 µM

**Q.** And the GI50 (CCRF-CEM leukemia)?
**A.** 1.44 µM

**Q.** What about the TGI (CCRF-CEM leukemia) of the same molecule?
**A.** > 33.3 µM

**Q.** What about the GI50 (COLO 205 colon) of the same molecule?
**A.** 0.744 µM

**Q.** What about the TGI (COLO 205 colon) of the same molecule?
**A.** 2.58 µM

**Q.** And the GI50 (DU-145 prostate)?
**A.** 0.85 µM

**Q.** And the TGI (DU-145 prostate)?
**A.** 20.9 µM

**Q.** And the GI50 (EKVX NSCLC)?
**A.** 1.7 µM

**Q.** And the TGI (EKVX NSCLC)?
**A.** 10.7 µM

**Q.** And the GI50 (HCC-2998 colon)?
**A.** 1.08 µM

**Q.** And the TGI (HCC-2998 colon)?
**A.** 3.74 µM

**Q.** And the GI50 (HCT-116 colon)?
**A.** 0.904 µM

**Q.** And the TGI (HCT-116 colon)?
**A.** > 33.3 µM

**Q.** What about the GI50 (HCT-15 colon) of the same molecule?
**A.** 0.889 µM

**Q.** And the TGI (HCT-15 colon)?
**A.** > 33.3 µM

**Q.** And the GI50 (HL-60(TB) leukemia)?
**A.** 0.949 µM

**Q.** And the TGI (HL-60(TB) leukemia)?
**A.** > 33.3 µM

**Q.** And the GI50 (HOP-62 NSCLC)?
**A.** 1.01 µM

**Q.** What about the TGI (HOP-62 NSCLC) of the same molecule?
**A.** 3.79 µM

**Q.** What about the GI50 (HOP-92 NSCLC) of the same molecule?
**A.** 1.08 µM

**Q.** What about the TGI (HOP-92 NSCLC) of the same molecule?
**A.** 3.02 µM

**Q.** And the GI50 (HS 578T breast)?
**A.** 2.17 µM

**Q.** What about the TGI (HS 578T breast) of the same molecule?
**A.** 14.9 µM

**Q.** And the GI50 (HT29 colon)?
**A.** 0.612 µM

**Q.** What about the TGI (HT29 colon) of the same molecule?
**A.** 3.26 µM

**Q.** What about the GI50 (IGROV1 ovarian) of the same molecule?
**A.** 0.732 µM

**Q.** And the TGI (IGROV1 ovarian)?
**A.** 3.9 µM

**Q.** What about the GI50 (K-562 leukemia) of the same molecule?
**A.** 1.4 µM

**Q.** And the TGI (K-562 leukemia)?
**A.** > 33.3 µM

**Q.** And the GI50 (KM12 colon)?
**A.** 1.35 µM

**Q.** What about the TGI (KM12 colon) of the same molecule?
**A.** 30.7 µM

**Q.** What about the GI50 (LOX IMVI melanoma) of the same molecule?
**A.** 1.04 µM

**Q.** And the TGI (LOX IMVI melanoma)?
**A.** 7.18 µM

**Q.** And the GI50 (M14 melanoma)?
**A.** 0.788 µM

**Q.** What about the TGI (M14 melanoma) of the same molecule?
**A.** 2.4 µM

**Q.** And the GI50 (MALME-3M melanoma)?
**A.** 0.784 µM

**Q.** And the TGI (MALME-3M melanoma)?
**A.** 2.27 µM

**Q.** What about the GI50 (MCF7 breast) of the same molecule?
**A.** 0.652 µM

**Q.** What about the TGI (MCF7 breast) of the same molecule?
**A.** > 33.3 µM

**Q.** What about the GI50 (MDA-MB-231 breast) of the same molecule?
**A.** 1.11 µM

**Q.** What about the TGI (MDA-MB-231 breast) of the same molecule?
**A.** 4.72 µM

**Q.** What about the GI50 (MDA-MB-435) of the same molecule?
**A.** 0.809 µM

**Q.** And the TGI (MDA-MB-435)?
**A.** 2.35 µM

**Q.** What about the GI50 (MOLT-4 leukemia) of the same molecule?
**A.** 1.55 µM

**Q.** And the TGI (MOLT-4 leukemia)?
**A.** > 33.3 µM

**Q.** And the GI50 (NCI-H226 lung)?
**A.** 9.01 µM

**Q.** What about the TGI (NCI-H226 lung) of the same molecule?
**A.** 25.1 µM

**Q.** What about the GI50 (NCI-H23 lung) of the same molecule?
**A.** 0.651 µM

**Q.** What about the TGI (NCI-H23 lung) of the same molecule?
**A.** 1.91 µM

**Q.** And the GI50 (NCI-H460 lung)?
**A.** 0.833 µM

**Q.** What about the TGI (NCI-H460 lung) of the same molecule?
**A.** 4.19 µM

**Q.** What about the GI50 (NCI-H522 lung) of the same molecule?
**A.** 0.668 µM

**Q.** What about the TGI (NCI-H522 lung) of the same molecule?
**A.** 1.62 µM

**Q.** What about the GI50 (NCI/ADR-RES ovarian) of the same molecule?
**A.** 0.812 µM

**Q.** What about the TGI (NCI/ADR-RES ovarian) of the same molecule?
**A.** 2.55 µM

**Q.** What about the GI50 (OVCAR-3 ovarian) of the same molecule?
**A.** 1.06 µM

**Q.** And the TGI (OVCAR-3 ovarian)?
**A.** 4.05 µM

**Q.** And the GI50 (OVCAR-4 ovarian)?
**A.** 0.797 µM

**Q.** And the TGI (OVCAR-4 ovarian)?
**A.** 2.72 µM

**Q.** What about the GI50 (OVCAR-5 ovarian) of the same molecule?
**A.** 1.09 µM

**Q.** And the TGI (OVCAR-5 ovarian)?
**A.** 7.18 µM

**Q.** And the GI50 (OVCAR-8 ovarian)?
**A.** 1.05 µM

**Q.** And the TGI (OVCAR-8 ovarian)?
**A.** 32.5 µM

**Q.** What about the GI50 (PC-3 prostate) of the same molecule?
**A.** 1.12 µM

**Q.** And the TGI (PC-3 prostate)?
**A.** 6.51 µM

**Q.** And the GI50 (RPMI-8226 leukemia)?
**A.** 2.27 µM

**Q.** And the TGI (RPMI-8226 leukemia)?
**A.** 19.1 µM

**Q.** And the GI50 (RXF 393 renal)?
**A.** 0.581 µM

**Q.** And the TGI (RXF 393 renal)?
**A.** 1.32 µM

**Q.** What about the GI50 (SF-268 CNS) of the same molecule?
**A.** 1.17 µM

**Q.** What about the TGI (SF-268 CNS) of the same molecule?
**A.** 8.57 µM

**Q.** What about the GI50 (SF-295 CNS) of the same molecule?
**A.** 0.926 µM

**Q.** And the TGI (SF-295 CNS)?
**A.** 4.88 µM

**Q.** And the GI50 (SF-539 CNS)?
**A.** 0.816 µM

**Q.** And the TGI (SF-539 CNS)?
**A.** 2.24 µM

**Q.** What about the GI50 (SK-MEL-2 melanoma) of the same molecule?
**A.** 0.695 µM

**Q.** And the TGI (SK-MEL-2 melanoma)?
**A.** 1.42 µM

**Q.** What about the GI50 (SK-MEL-28 melanoma) of the same molecule?
**A.** 1.2 µM

**Q.** What about the TGI (SK-MEL-28 melanoma) of the same molecule?
**A.** 4.69 µM

**Q.** What about the GI50 (SK-MEL-5 melanoma) of the same molecule?
**A.** 0.63 µM

**Q.** And the TGI (SK-MEL-5 melanoma)?
**A.** 1.4 µM

**Q.** And the GI50 (SK-OV-3 ovarian)?
**A.** 1.18 µM

**Q.** What about the TGI (SK-OV-3 ovarian) of the same molecule?
**A.** 5.33 µM

**Q.** What about the GI50 (SN12C renal) of the same molecule?
**A.** 1.22 µM

**Q.** And the TGI (SN12C renal)?
**A.** 7.83 µM

**Q.** What about the GI50 (SNB-19 CNS) of the same molecule?
**A.** 1.19 µM

**Q.** What about the TGI (SNB-19 CNS) of the same molecule?
**A.** > 33.3 µM

**Q.** What about the GI50 (SNB-75 CNS) of the same molecule?
**A.** 1.87 µM

**Q.** What about the TGI (SNB-75 CNS) of the same molecule?
**A.** 8.11 µM

**Q.** And the GI50 (SR leukemia)?
**A.** 0.961 µM

**Q.** What about the TGI (SR leukemia) of the same molecule?
**A.** > 33.3 µM

**Q.** What about the GI50 (SW-620 colon) of the same molecule?
**A.** 0.896 µM

**Q.** What about the TGI (SW-620 colon) of the same molecule?
**A.** > 33.3 µM

**Q.** And the GI50 (T-47D breast)?
**A.** 0.858 µM

**Q.** And the TGI (T-47D breast)?
**A.** 9.64 µM

**Q.** And the GI50 (TK-10 renal)?
**A.** 1.37 µM

**Q.** What about the TGI (TK-10 renal) of the same molecule?
**A.** 6.87 µM

**Q.** And the GI50 (U251 CNS)?
**A.** 1.11 µM

**Q.** And the TGI (U251 CNS)?
**A.** > 33.3 µM

**Q.** What about the GI50 (UACC-257 melanoma) of the same molecule?
**A.** 1.82 µM

**Q.** What about the TGI (UACC-257 melanoma) of the same molecule?
**A.** 13.8 µM

**Q.** What about the GI50 (UACC-62 melanoma) of the same molecule?
**A.** 0.728 µM

**Q.** What about the TGI (UACC-62 melanoma) of the same molecule?
**A.** 1.61 µM

**Q.** And the GI50 (UO-31 renal)?
**A.** 0.732 µM

**Q.** And the TGI (UO-31 renal)?
**A.** 2.23 µM
